Laboratory results published in the supplement of paper PMC2824726.

The sequences below were run on MDA-MB-231 (assay: shRNA barcode abundance ratio t_end/t_zero (depletion over 4 weeks of proliferation) (log2 ratio); higher = less depletion (weaker anti-proliferative effect of the shRNA)). Details: time after t zero 28 days.
How it was run: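 The abundance ratio averages t_end/t_zero signal ratios, each normalised to its subarray median, over the probes that pass background filtering. That mean is reported in log2. It derives from MDA-MB-231 cells given a pooled lentiviral shRNA library at MOI 0.3, kept in 0.5 μg/ml puromycin and harvested for genomic DNA at 5 days (t_zero) and 33 days post-infection, in three biological replicates. Barcodes were PCR-amplified, biotin-labelled and hybridised for 16 h at 45°C to Geniom One tiling arrays (six 25-nt probes per barcode), and streptavidin phycoerythrin was used for detection.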

| Sequence | shRNA barcode abundance ratio t end/t zero (log2) |
| --- | --- |
| CCTCAGTGTCTGTTGAAGTAA (targeted gene: BIRC6) | -0.238 |
| GCCAAGTTCTTAGTTGCTGTA (targeted gene: CXCR4) | -1.59 |
| CCATTGCCCATCGAGATTTAA (targeted gene: ACVR1) | 0.196 |
| GCACAACCAGTTCTGCAATAT (targeted gene: TAX1BP1) | 0.565 |
| CCTCACCCTGTCAGGTATCAA (targeted gene: MYBL2) | -0.1 |
| CGTAAGATGATGGATTTGATT (targeted gene: BIRC5) | 0.0401 |
| GGCCAGAATATCATTGTCATA (targeted gene: RBKS) | -0.309 |
| GCTCAGTGAGCCCATGGAATT (targeted gene: RELA) | 0.332 |
| GCCTGCTGAATTTATGTTGTA (targeted gene: RAB6C) | -1.3 |
| GGCAGCTTCCTTGAACCATTA (targeted gene: SPHK1) | -0.334 |
| GGAAGTGATCCAAATGTTAAA (targeted gene: BARD1) | -2.23 |
| GGATGCTTCTGAATAGAAATA (targeted gene: BIRC7) | 0.0929 |
| GCCTACTTTCACACTAAGAAA (targeted gene: CASP8) | -0.242 |
| GCTATACGAATGGGATTTGAT (targeted gene: BIRC8) | 0.211 |
| GCGTCTGGCCTCCTTCTATGA (targeted gene: BIRC7) | 0.556 |
| CCTCACCCTGTACCAGTCCAA (targeted gene: GSTP1) | -0.648 |
| CCAGAATCTCTGGGAATATAA (targeted gene: BFAR) | -0.109 |
| CCAGAGGCTTCCACTTAATAT (targeted gene: APAF1) | 0.0519 |
